The values that follow come from patent US20110006261A1, “USE OF AN OZONE/OXYGEN MIXTURE AS PRIMARY ANTICANCER THERAPY THROUGH INTRAPERITONEAL INSUFFLATION” (priority 2007, published 2011).

“And” between values parts separate entries of the source, which are not always exact repeats. Equal entries are not always repeated.

Data set [1] can be described thus: Adverse effects: intraabdominal pressure, body weight, clinical signs.
Another data set has as its system auricular VX2 carcinoma. Kind of data set: Therapy of auricular VX2 carcinoma in rabbits by intraperitoneal gas insufflation (survival, tumor clearance). The class given is in vivo, New Zealand White (NZW) rabbit.
For data set [2] the following is noted: inhaled, mice; cited from earlier work.

For “medical ozone/oxygen (O3/O2) gas mixture”, in data set [1] (rabbit, in vivo), the “severe side effects (sustained body weight reduction, gas embolism, fever, diarrhea, peritonitis)” value is on record as “no severe side effects”.

For the compound `O=O` [O2, pure medical oxygen], the “day of tumor clearance” value in the data set with auricular VX2 carcinoma (day after tumor cell inoculation) is 68 days and 85 days. In the data set with auricular VX2 carcinoma (observation period 90 days after tumor cell inoculation), this compound registered a mean survival time of 51 days. Besides, in the data set on auricular VX2 carcinoma (until day 90), the “number of rabbits with tumor remission” value is “two”. Moreover, the “maximal drop of mean body weight” value in data set [1] (compared to mean body weight on day 14) stood at 5.0%.

`O=[O+][O-]` [ozone]: in data set [2], the “adverse effect grade (weight loss)” value is “grade II” and the weight loss result is “up to 14%”.
